Assay results from patent US9089544B2, “Composition” (Slotervaart Participaties BV, priority 2007, dated 2015).
“And” between values parts separate entries of the source, which are not always exact repeats. Identical values can stand only once.

What was measured:
[1] = Docetaxel solubility (dissolution) test of formulations A to N in 25 mL WfI; type: physicochemical; details: 37° C., 720 rpm; for maximum docetaxel concentration / maximum docetaxel concentration as % of total docetaxel present: ±6 mg docetaxel
Experimental: A magnetic stirring bar and 25 mL water were added to the beaker. The solution was stirred at 720 rpm, and kept at approximately 37° C. Samples were collected at various timepoints, and filtrated using a 0.45 μm filter before they were diluted with a 1:4 v/v mixture of methanol and acetonitrile. The filtrated and diluted samples were subsequently analyzed by HPLC-UV (see table 17).

[2] = Clinical phase I trial: docetaxel liquid formulation versus MODRA capsules with ritonavir (Example 5); type: in vivo, human; details: 20 mg docetaxel liquid formulation, patient 306
Experimental: 10 patients participated in an ongoing clinical phase I trial.
The final mixture was transferred to a stainless steel lyophilisation box (Gastronorm size 1/3), t-butanol and water were subsequently removed by lyophilisation (see table. 16).
Patients took the medication orally on an empty stomach in the morning with 100 mL tap water.
Patients 307, 308, 309 and 310 received liquid formulation and/or MODRA. Cycles were administered in a weekly interval.
According to institutional guidelines, for both oral and i.v. docetaxel all patients were treated with oral dexamethason. A dose of 4 mg dexamethason was given 1 hour prior to the study drugs, followed by 4 mg every 12 hours (2 times).
A blank sample was taken before dosing.
According to institutional guidelines, for both oral and i.v. docetaxel, all patients were treated with oral dexamethason. A dose of 4 mg dexamethason was given 1 hour prior to the study drugs, followed by 4 mg every 12 hours (2 times).

[3] = cited from earlier work
[4] = clinical; details: human, in vivo, 100 mg
Experimental: Oral ritonavir: 1 capsule with 100 mg ritonavir (Norvir®).
Ritonavir dose: 1 capsule with 100 mg ritonavir (Norvir®).
After drug administration blood samples were collected for pharmacokinetic analyses. A blank sample was taken before dosing. Blood samples were centrifuged, plasma was separated and immediately stored at −20° C. until analyses. Analysis were performed with validated HPLC methods in a GLP (Good Laboratory Practice) licensed laboratory. This concerns all pharmacokinetic studies presented here by the inventors.

[5] = clinical; details: human, in vivo, po, 100 mg
Experimental: (§1) Pharmacokinetic (PK) analysis of the data generated from the above trial was performed using the NONMEM (non-linear mixed effect modelling) program (GloboMax LLC, Hanover, Md., USA) to produce a pharmacokinetic profile. This models the absorption, elimination and distribution of a drug using different compartments.
(§2) This model uses three compartments and is well described by Bruno et al. [85].

[6] = human, in vivo
Experimental: as §1, §2

[7] = mice; cited from earlier work
[8] = cited from earlier work; remark: listed apart in the source
[9] = cited from earlier work; remark: listed apart in the source
[10] = cited from earlier work; remark: listed apart in the source
[11] = oral docetaxel 75 mg/m^2, CsA 15 mg/kg

SMILES: CC(=O)O[C@@]12CO[C@@H]1C[C@H](O)[C@@]1(C)C(=O)[C@H](O)C3=C(C)[C@@H](OC(=O)[C@H](O)[C@@H](NC(=O)OC(C)(C)C)c4ccccc4)C[C@@](O)([C@@H](OC(=O)c4ccccc4)[C@H]21)C3(C)C [Formulation A, docetaxel]
- equilibrium docetaxel concentration [1]: approximately 6 μg/mL
- equilibrium docetaxel concentration as % of total docetaxel present [1]: ~2%
- time at which equilibrium concentration is reached [1]: 15 min
- time of stirring at which maximum concentration is reached [1]: 5 min
- maximum docetaxel concentration [1]: approximately 12 μg/mL
- maximum docetaxel concentration as % of total docetaxel present [1]: ~4.7%

SMILES: CC(=O)O[C@@]12CO[C@@H]1C[C@H](O)[C@@]1(C)C(=O)[C@H](O)C3=C(C)[C@@H](OC(=O)[C@H](O)[C@@H](NC(=O)OC(C)(C)C)c4ccccc4)C[C@@](O)([C@@H](OC(=O)c4ccccc4)[C@H]21)C3(C)C [Formulation B, docetaxel]
- solubility from 10 to 60 minutes [1]: comparable to formulation A
- time of stirring at which maximum concentration is reached [1]: 0.5 min
- maximum docetaxel concentration [1]: 32 µg/mL
- maximum docetaxel concentration as % of total docetaxel present [1]: 13%

SMILES: CC(=O)O[C@@]12CO[C@@H]1C[C@H](O)[C@@]1(C)C(=O)[C@H](O)C3=C(C)[C@@H](OC(=O)[C@H](O)[C@@H](NC(=O)OC(C)(C)C)c4ccccc4)C[C@@](O)([C@@H](OC(=O)c4ccccc4)[C@H]21)C3(C)C [docetaxel]
- increase of docetaxel AUC by second boosting dose of 100 mg ritonavir 4 hours after docetaxel [2]: 1.5 fold
- apparent bioavailability of oral docetaxel with CsA [3, 11]: 90%
- increase of the systemic exposure of docetaxel with oral CsA [3, 11]: 7.3 fold
- apparent bioavailability of oral docetaxel without CsA ([3]; oral docetaxel 75 mg/m^2): 8%
- inter- and intra-patient variabilities in the AUC of docetaxel ([3]; range observed after i.v. administration, oral in the same range): 29%-53%
- AUC ([4]; iv, AUC IV day 15): 2100 ng·h/mL
- Tmax ([4]; iv, Tmax IV day 15): 48 min
- AUC ([4]; po, AUC docetaxel oral without ritonavir): 290 ± 260 ng·h/mL
- bioavailability [5]: 14%
- volume of the central compartment, oral administration [6]: ~60 L
- apparent bioavailability without ritonavir [7]: 4%
- increase of AUC of oral docetaxel by coadministration with CsA [7]: ninefold
- docetaxel AUC ([8]; 100 mg oral docetaxel + CsA 15 mg/kg, weekly): about 2.3 mg·h/L
- overall response rate ([8]; weekly 100 mg oral docetaxel + CsA 15 mg/kg, breast cancer): 50% and 52%

SMILES: CC(=O)O[C@H]1C(=O)[C@@]2(C)[C@H]([C@H](OC(=O)c3ccccc3)[C@]3(O)C[C@H](OC(=O)[C@H](O)[C@@H](NC(=O)c4ccccc4)c4ccccc4)C(C)=C1C3(C)C)[C@]1(OC(C)=O)CO[C@@H]1C[C@@H]2O [paclitaxel]
- apparent bioavailability of oral paclitaxel with CsA ([9]; 60 mg/m^2 oral paclitaxel, 15 mg/kg CsA): 47%
- apparent bioavailability of oral paclitaxel without CsA ([9]; 60 mg/m^2 oral paclitaxel): 4%
- maximum tolerated dose ([9]; oral paclitaxel in combination with CsA): 300 mg/m^2
- increase of AUC in knockout mice compared with wild-type mice, i.v. administration ([10]; mdr1a P-gp knockout mice): twofold
- increase of AUC in knockout mice compared with wild-type mice, oral administration ([10]; mdr1a P-gp knockout mice): sixfold
- oral bioavailability in wild-type mice when CsA was coadministered ([10]; mouse, in vivo, po): 67%
- oral bioavailability in wild-type mice with GF120918 ([10]; mouse, in vivo, po): 40%
- oral bioavailability in wild-type mice, paclitaxel alone ([10]; mouse, in vivo, po): 9% and 8.5%
- fraction of unchanged paclitaxel recovered from the faeces, mdr1a P-gp knockout mice ([10]; oral administration): 3%

SMILES: CC(C)c1nc(CN(C)C(=O)N[C@H](C(=O)N[C@@H](Cc2ccccc2)C[C@H](O)[C@H](Cc2ccccc2)NC(=O)OCc2cncs2)C(C)C)cs1 [ritonavir]
- Ritonavir Cmax Simultaneous ([4]; po): 200 ng/mL
